{"source": "patent US5612350A", "about": "“Macrocyclic immunomodulators with novel cyclohexyl ring replacements” (Abbott Laboratories, priority 1995, dated 1997)", "test_system": "human mixed lymphocyte reaction (MLR)", "test": "human mixed lymphocyte reaction (MLR) assay, immunosuppressant activity", "type": "cell-based", "details": "for IC50: Table 1", "description": "In Vitro Assay of Biological Activity\nThe immunosuppressant activity of the compounds of the present invention was determined using the human mixed lymphocyte reaction (MLR) assay described by. T. Kinoet al. in Transplantation Proceedings, XIX(5):36-39, Suppl. 6 (1987)."}
{"smiles": "CC[C@@H]1/C=C(\\C)C[C@H](C)C[C@H](OC)[C@H]2O[C@@](O)(C(=O)C(=O)N3CCCC[C@H]3C(=O)O[C@H](/C(C)=C/[C@@H](CCO)CCC(=O)NCc3ccccc3)[C@H](C)[C@@H](O)CC1=O)[C@H](C)C[C@@H]2OC", "note": "[Example 7]", "values": [{"measurement": "IC50", "result": 23, "unit": "nM"}]}
{"smiles": "CC[C@@H]1/C=C(\\C)C[C@H](C)C[C@H](OC)[C@H]2O[C@@](O)(C(=O)C(=O)N3CCCC[C@H]3C(=O)O[C@H](/C(C)=C/[C@@H](CCO)CCC(=O)NCCO)[C@H](C)[C@@H](O)CC1=O)[C@H](C)C[C@@H]2OC", "note": "[Example 9]", "values": [{"measurement": "IC50", "result": 65, "unit": "nM"}]}
{"smiles": "CC[C@@H]1/C=C(\\C)C[C@H](C)C[C@H](OC)[C@H]2O[C@@](O)(C(=O)C(=O)N3CCCC[C@H]3C(=O)O[C@H](/C(C)=C/[C@H]3CCOC(=O)CC3)[C@H](C)[C@@H](O)CC1=O)[C@H](C)C[C@@H]2OC", "note": "[Example 11]", "values": [{"measurement": "IC50", "result": 1.1, "unit": "nM"}]}
{"smiles": "CCCNC(=O)CC[C@@H](/C=C(\\C)[C@H]1OC(=O)[C@@H]2CCCCN2C(=O)C(=O)[C@]2(O)O[C@H]([C@@H](OC)C[C@@H](C)C/C(C)=C/[C@@H](CC)C(=O)C[C@H](O)[C@H]1C)[C@@H](OC)C[C@H]2C)CCO", "note": "[Example 13]", "values": [{"measurement": "IC50", "result": 388, "unit": "nM"}]}
{"smiles": "CC[C@@H]1/C=C(\\C)C[C@H](C)C[C@H](OC)[C@H]2O[C@@](O)(C(=O)C(=O)N3CCCC[C@H]3C(=O)O[C@H](/C(C)=C/[C@@H](CCO)CCC(=O)N3CCOCC3)[C@H](C)[C@@H](O)CC1=O)[C@H](C)C[C@@H]2OC", "note": "[Example 15]", "values": [{"measurement": "inhibition at 1 µM", "setting": "Table 1, at 1 × 10^-6 (M), read-out: 25% at 1 × 10^-6 (in the IC50 (M) column)", "result": 25, "unit": "%"}]}
{"smiles": "CC[C@@H]1/C=C(\\C)C[C@H](C)C[C@H](OC)[C@H]2O[C@@](O)(C(=O)C(=O)N3CCCC[C@H]3C(=O)O[C@H](/C(C)=C/[C@@H]3CCNC(=O)OCC3)[C@H](C)[C@@H](O)CC1=O)[C@H](C)C[C@@H]2OC", "note": "[Example 37]", "values": [{"measurement": "IC50", "result": 0.57, "unit": "nM"}]}
{"smiles": "CC[C@@H]1/C=C(\\C)C[C@H](C)C[C@H](OC)[C@H]2O[C@@](O)(C(=O)C(=O)N3CCCC[C@H]3C(=O)O[C@H](/C(C)=C/[C@@H]3CCC(=O)N4CCSC4C3)[C@H](C)[C@@H](O)CC1=O)[C@H](C)C[C@@H]2OC", "note": "(some centres unmarked) [Example 39]", "values": [{"measurement": "IC50", "result": 37, "unit": "nM"}]}
{"smiles": "CC[C@@H]1/C=C(\\C)C[C@H](C)C[C@H](OC)[C@H]2O[C@@](O)(C(=O)C(=O)N3CCCC[C@H]3C(=O)O[C@H](/C(C)=C/C3CCN(C(=O)N4CCOCC4)CC3)[C@H](C)[C@@H](O)CC1=O)[C@H](C)C[C@@H]2OC", "note": "[Example 56]", "values": [{"measurement": "IC50", "result": 2.6, "unit": "nM"}]}
